From ChEMBL document CHEMBL4513146, “CO-ADD screening of Karazin Kharkiv National University (Ukraine) compounds”

How the values were obtained:
Candida albicans = experiment: microbe, parasite or virus in culture; details: ATCC 90028, ASSAY_TEST Inhibition of Fungal Growth, detection method Absorption (OD530)
Description: Antifungal activity against Candida albicans ATCC 90028 (CO-ADD:FG_001); MIC in YNB media using NBS plates, by OD630

Klebsiella pneumoniae = experiment: microbe, parasite or virus in culture; details: ATCC 700603, 18 h, ASSAY_TEST Inhibition of Bacterial Growth, detection method Absorption (OD600), MEDIA CAMHB, plate type 384well, NBS, CORNING #3640
Description: Antibacterial activity against Klebsiella pneumoniae MDR ATCC 70063 (CO-ADD:GN_003); MIC in CAMBH media using NBS plates, by OD(600)

Escherichia coli = experiment: microbe, parasite or virus in culture; details: ATCC 25922, 18 h, ASSAY_TEST Inhibition of Bacterial Growth, detection method Absorption (OD600), MEDIA CAMHB, plate type 384well, NBS, CORNING #3640
Description: Antibacterial activity against Escherichia coli ATCC 25922 (CO-ADD:GN_001); MIC in CAMBH media using NBS plates, by OD(600)

HEK293 = experiment: cells; assay type: functional; details: Homo sapiens, ATCC CRL1573, HEK293; ASSAY_TEST Inhibition of Cell Viability; detection method Resazurin; Fluorescence (ex560/em590); MEDIA DMEM with 10% FBS; plate type 384well; TC; CORNING #3712; time 18 hr
Pseudomonas aeruginosa [1] = experiment: microbe, parasite or virus in culture; details: ATCC 27853, 18 h, ASSAY_TEST Inhibition of Bacterial Growth, detection method Absorption (OD600), MEDIA CAMHB, plate type 384well, NBS, CORNING #3640
Description: Antibacterial activity against Pseudomonas aeruginosa ATCC 27853 (CO-ADD:GN_042); MIC in CAMBH media using NBS plates, by OD(600)

Acinetobacter baumannii = experiment: microbe, parasite or virus in culture; details: ATCC 19606, 18 h, ASSAY_TEST Inhibition of Bacterial Growth, detection method Absorption (OD600), MEDIA CAMHB, plate type 384well, NBS, CORNING #3640
Description: Antibacterial activity against Acinetobacter baumannii ATCC 19606 (CO-ADD:GN_034); MIC in CAMBH media using NBS plates, by OD600

Staphylococcus aureus = experiment: microbe, parasite or virus in culture; details: ATCC 43300, 18 h, ASSAY_TEST Inhibition of Bacterial Growth, detection method Absorption (OD600), MEDIA CAMHB, plate type 384well, NBS, CORNING #3640
Description: Antibacterial activity against Staphylococcus aureus MRSA ATCC 43300 (CO-ADD:GP_020); MIC in CAMBH media, using NBS plates, by OD(600)

Pseudomonas aeruginosa [2] = experiment: Antibacterial activity against Pseudomonas aeruginosa PAO397 [PAO1 d(mexAB-oprM) d(mexCD-oprJ) d(mexEF-oprN) d(mexJKL) d(mexXY) d(opmH)] (CO-ADD:GN_211); MIC in CAMBH media using NBS plates, by OD(600); assay type: functional; details: ASSAY_TEST Inhibition of Bacterial Growth, detection method Absorption (OD600), MEDIA CAMHB, plate type 384well, CORNING #3640, time 18 hr

Description for Cryptococcus neoformans: Antifungal activity against Cryptococcus neoformans H99 ATCC 208821 (CO-ADD:FG_002); MIC in YNB media using NBS plates, by Resazurin OD(600-570)

Cc1ccc(CN(c2ccc(F)c(F)c2)S(=O)(=O)c2cccn3cnnc23)cc1
> 32 µg/mL: MIC (Candida albicans) | MIC (Cryptococcus neoformans) | MIC (Klebsiella pneumoniae) | MIC (Escherichia coli) | CC50 (HEK293) | MIC (Pseudomonas aeruginosa [1]) | MIC (Acinetobacter baumannii) | MIC (Staphylococcus aureus) | MIC (Pseudomonas aeruginosa [2])

Cc1cccc(NC(=O)Cn2nc3c(Sc4ccc(C)cc4C)nccn3c2=O)c1
> 32 µg/mL: MIC (Candida albicans) | MIC (Cryptococcus neoformans) | MIC (Klebsiella pneumoniae) | MIC (Escherichia coli) | CC50 (HEK293) | MIC (Pseudomonas aeruginosa [1]) | MIC (Acinetobacter baumannii) | MIC (Staphylococcus aureus)
